Assay results published in ChEMBL document CHEMBL1909046, “DrugMatrix in vitro pharmacology data”.

How the values were obtained:
D(3) dopamine receptor = D(3) dopamine receptor (Homo sapiens, UniProt P35462); experiment: DRUGMATRIX: Dopamine D3 radioligand binding (ligand: [3H] Spiperone); assay type: cell membranes, CHO, Membrane; details: cho
[1] = DRUGMATRIX: Sodium/nucleoside co-transporter radioligand binding (ligand: nitrobenzylthioinosine); assay type: cell membranes, Cavia porcellus, Dunkin-Hartley, Cerebral cortex, Membrane; details: Not Active = under 50% inhibition at 10 µM
Substance-P receptor = Substance-P receptor (Homo sapiens, UniProt P25103); assay type: cell membranes, Membrane; details: cho; also: in other assays of this panel Not Active means under 50% inhibition at 10 µM
[2] = DRUGMATRIX: Leukotriene, BLT (LTB4) radioligand binding (ligand: [3H]LTB4); assay type: cell membranes, Membrane; details: u-937; Not Active = under 50% inhibition at 10 µM
[3] = target: cGMP-specific 3',5'-cyclic phosphodiesterase (Homo sapiens, UniProt O76074); experiment: DRUGMATRIX: Phosphodiesterase PDE5 enzyme inhibition (substrate: [3H]cGMP + cGMP); assay type: tissue-based; details: platelet; Not Active = under 50% inhibition at 10 µM
[4] = DRUGMATRIX: Phosphodiesterase PDE3 enzyme inhibition (substrate: [3H]cAMP + cAMP); assay type: tissue-based, Homo sapiens; details: platelet; Not Active = under 50% inhibition at 10 µM
[5] = target: Sigma non-opioid intracellular receptor 1 (Homo sapiens, UniProt Q99720); experiment: DRUGMATRIX: Sigma1 radioligand binding (ligand: [3H] Haloperidol); assay type: cell membranes, Jurkat, Membrane; details: jurkat; Not Active = under 50% inhibition at 10 µM
Chain of Sigma non-opioid intracellular receptor 1 (Q99720 whole entry): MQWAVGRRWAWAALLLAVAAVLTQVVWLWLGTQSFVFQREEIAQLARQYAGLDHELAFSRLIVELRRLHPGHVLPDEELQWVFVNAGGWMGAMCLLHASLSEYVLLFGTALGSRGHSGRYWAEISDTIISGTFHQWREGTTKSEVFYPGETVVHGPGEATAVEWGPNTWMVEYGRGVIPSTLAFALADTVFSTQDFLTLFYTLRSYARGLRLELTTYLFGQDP

Chain of Substance-P receptor (P25103 whole entry): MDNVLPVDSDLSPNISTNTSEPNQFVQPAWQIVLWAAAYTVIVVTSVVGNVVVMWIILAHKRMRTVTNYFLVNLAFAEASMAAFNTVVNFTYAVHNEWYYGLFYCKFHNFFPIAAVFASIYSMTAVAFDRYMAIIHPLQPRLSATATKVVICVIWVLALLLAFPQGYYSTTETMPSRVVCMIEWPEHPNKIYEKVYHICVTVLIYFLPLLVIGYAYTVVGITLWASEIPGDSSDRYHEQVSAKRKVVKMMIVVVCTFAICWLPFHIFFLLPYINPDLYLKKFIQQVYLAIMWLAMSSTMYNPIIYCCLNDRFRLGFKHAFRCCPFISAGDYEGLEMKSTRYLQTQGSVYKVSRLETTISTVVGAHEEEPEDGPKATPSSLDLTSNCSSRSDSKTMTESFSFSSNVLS
Chain of D(3) dopamine receptor (P35462 whole entry): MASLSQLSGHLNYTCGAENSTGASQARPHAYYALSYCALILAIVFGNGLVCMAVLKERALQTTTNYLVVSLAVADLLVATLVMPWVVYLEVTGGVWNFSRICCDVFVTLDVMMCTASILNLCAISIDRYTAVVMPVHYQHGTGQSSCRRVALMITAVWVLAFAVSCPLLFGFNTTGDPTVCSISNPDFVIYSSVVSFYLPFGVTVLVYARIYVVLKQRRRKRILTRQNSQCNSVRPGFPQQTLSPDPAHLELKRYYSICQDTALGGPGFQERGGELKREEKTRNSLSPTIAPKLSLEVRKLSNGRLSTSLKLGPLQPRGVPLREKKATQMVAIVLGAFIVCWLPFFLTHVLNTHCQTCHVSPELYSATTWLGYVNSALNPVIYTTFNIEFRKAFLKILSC

Cc1c(N(C)CS(=O)(=O)[O-])c(=O)n(-c2ccccc2)n1C.[Na+] [DIPYRONE SODIUM]
Not Active: IC50 (D(3) dopamine receptor) | IC50 [1] | Ki [1] | IC50 (Substance-P receptor) | IC50 [2] | Ki [2] | IC50 [3] | IC50 [4] | Ki [4] | IC50 [5]

CN1C(=O)CN=C(c2ccccc2)c2cc(Cl)ccc21 [DIAZEPAM]
Not Active: IC50 (D(3) dopamine receptor) | IC50 [1] | Ki [1] | IC50 (Substance-P receptor) | IC50 [2] | Ki [2] | IC50 [3] | IC50 [4] | Ki [4] | IC50 [5]

CO[C@H]1[C@@H](O)[C@H](N)[C@@H](O[C@H]2O[C@H]([C@H](C)N)CC[C@H]2N)[C@H](O)[C@@H]1N(C)C(=O)CN [ASTROMICIN]
Not Active: IC50 (D(3) dopamine receptor) | IC50 [1] | Ki [1] | IC50 (Substance-P receptor) | IC50 [2] | Ki [2] | IC50 [3] | IC50 [4] | Ki [4] | IC50 [5]

CCn1cc(C(=O)O)c(=O)c2cc(F)c(N3CCNCC3)nc21 [ENOXACIN]
Not Active: IC50 (D(3) dopamine receptor) | IC50 [1] | Ki [1] | IC50 (Substance-P receptor) | IC50 [2] | Ki [2] | IC50 [3] | IC50 [4] | Ki [4] | IC50 [5]

CCC(=O)O[C@H]1[C@H](O[C@@H]2[C@@H](C)[C@H](O[C@H]3C[C@@](C)(OC)[C@@H](O)[C@H](C)O3)[C@@H](C)C(=O)O[C@H](CC)[C@@](C)(O)[C@H](O)[C@@H](C)C(=O)[C@H](C)C[C@@]2(C)O)O[C@H](C)C[C@@H]1N(C)C [ERYTHROMYCIN PROPIONATE]
Not Active: IC50 (D(3) dopamine receptor) | IC50 [1] | Ki [1] | IC50 (Substance-P receptor) | IC50 [2] | Ki [2] | IC50 [3] | IC50 [4] | Ki [4] | IC50 [5]

COBALT(II) ACETYLACETONATE
Not Active: IC50 (D(3) dopamine receptor) | Ki (D(3) dopamine receptor) | IC50 [1] | Ki [1] | IC50 (Substance-P receptor) | Ki (Substance-P receptor) | IC50 [2] | Ki [2] | IC50 [3] | Ki [3] | IC50 [4] | Ki [4] | IC50 [5] | Ki [5]

N[C@@H](Cc1ccc(F)cc1)C(=O)O
Not Active: IC50 (D(3) dopamine receptor) | IC50 [1] | Ki [1] | IC50 (Substance-P receptor) | IC50 [2] | Ki [2] | IC50 [3] | IC50 [4] | Ki [4] | IC50 [5]

O=C(O)Cc1ccc(-c2ccccc2)cc1 [FELBINAC]
Not Active: IC50 (D(3) dopamine receptor) | IC50 [1] | Ki [1] | IC50 (Substance-P receptor) | IC50 [2] | Ki [2] | IC50 [3] | IC50 [4] | Ki [4] | IC50 [5]

NC[C@H]1O[C@H](O[C@H]2[C@H](O)[C@@H](O[C@H]3O[C@H](CO)[C@@H](O)[C@H](N)[C@H]3O)[C@H](N)C[C@@H]2N)[C@H](O)[C@@H](O)[C@@H]1O [KANAMYCIN]
Not Active: IC50 (D(3) dopamine receptor) | IC50 [1] | Ki [1] | IC50 (Substance-P receptor) | IC50 [2] | Ki [2] | IC50 [3] | IC50 [4] | Ki [4] | IC50 [5]

N=C(N)N/N=C/c1c(Cl)cccc1Cl [GUANABENZ]
Not Active: IC50 (D(3) dopamine receptor) | IC50 [1] | Ki [1] | IC50 (Substance-P receptor) | IC50 [2] | Ki [2] | IC50 [3] | IC50 [4] | Ki [4] | IC50 [5]

C[C@]12CCC(=O)C=C1CC[C@@H]1[C@@H]2[C@@H](O)C[C@@]2(C)[C@H]1CC[C@]2(O)C(=O)CO [HYDROCORTISONE]
Not Active: IC50 (D(3) dopamine receptor) | IC50 [1] | Ki [1] | IC50 (Substance-P receptor) | IC50 [2] | Ki [2] | IC50 [3] | IC50 [4] | Ki [4] | IC50 [5]

Nc1nc(N)nc(NC2CC2)n1 [CYROMAZINE]
Not Active: IC50 (D(3) dopamine receptor) | IC50 [1] | Ki [1] | IC50 (Substance-P receptor) | IC50 [2] | Ki [2] | IC50 [3] | IC50 [4] | Ki [4] | IC50 [5]
